The nature of this data set: log p. Format: physicochemical.

For 58 molecules, log p results are on record in patent US20090149455A1, “Use of Triazolopyrimidines for Controlling Plant Diseases on Legumes” (Bayer CropScience AG, priority 2005, published 2009).

SMILES strings stand for the structures.

Molecule `CC1(C)CCN(c2c(-c3ccc(F)cc3F)c(Cl)nc3ncnn23)CC1` [Example 191] registered a log p of 3.8.
The result for `CC1=CCCN(c2c(-c3ccc(F)cc3F)c(Cl)nc3ncnn23)C1` [Example 192] reads 3.3; that for `Fc1ccc(-c2c(Cl)nc3ncnn3c2N2CCC(C(F)(F)F)CC2)c(F)c1` [Example 193], 3.34.
The same measure for `Fc1ccc(-c2c(Cl)nc3ncnn3c2N2CCCCC2)c(F)c1` [Example 194]: 3.14; for `Fc1ccc(-c2c(Cl)nc3ncnn3c2N2CCOCC2)c(F)c1` [Example 195]: 2.19.
The result for `Fc1ccc(-c2c(Cl)nc3ncnn3c2N2CCSCC2)c(F)c1` [Example 196] reads 2.8; that for `CN1CCN(c2c(-c3c(F)c(F)c(F)c(F)c3F)c(Cl)nc3ncnn23)CC1` [Example 197], 1.43.
With `Fc1c(F)c(F)c(-c2c(Cl)nc3ncnn3c2N2CCCCC2)c(F)c1F` [Example 198], the log p is recorded as 3.61.
The result for `Fc1c(F)c(F)c(-c2c(Cl)nc3ncnn3c2N2CCOCC2)c(F)c1F` [Example 199] reads 2.69; that for `Fc1ccccc1-c1c(Cl)nc2ncnn2c1N1CCOCC1` [Example 200], 2.09.
The same measure for `Fc1cc(F)c(-c2c(Cl)nc3ncnn3c2N2CCCCO2)c(F)c1` [Example 201]: 2.92; for `Fc1cccc(F)c1-c1c(Cl)nc2ncnn2c1N1CCCCC1C(F)(F)F` (stereo not shown) [Example 202]: 3.11; for `Fc1cc(F)c(-c2c(Cl)nc3ncnn3c2N2CCCO2)c(F)c1` [Example 203]: 2.4.
The same measure for `Fc1ccc(-c2c(Cl)nc3ncnn3c2N2CCCCO2)c(Cl)c1` [Example 204]: 3.11.
For the molecule `Fc1ccc(-c2c(Cl)nc3ncnn3c2N2CCCCO2)c(F)c1` [Example 205], the log p turned out to be 2.84.
For `CC1CN(c2c(-c3c(F)c(F)c(F)c(F)c3F)c(Cl)nc3ncnn23)CC(C)O1` (stereo not shown) [Example 206], the log p is given as 3.33.
The same measure for `Fc1c(F)c(F)c(-c2c(Cl)nc3ncnn3c2N2CCCC2)c(F)c1F` [Example 207]: 3.11; for `Fc1c(F)c(F)c(-c2c(Cl)nc3ncnn3c2N2CCCCC2C(F)(F)F)c(F)c1F` (stereo not shown) [Example 208]: 4.09; for `Fc1c(F)c(F)c(-c2c(Cl)nc3ncnn3c2N2CCSCC2)c(F)c1F` [Example 209]: 3.29.
As for `Fc1ccc(-c2c(Cl)nc3ncnn3c2N2CCCC2C(F)(F)F)c(F)c1` (stereo not shown) [Example 210], the log p was found to be 3.2.
The same measure for `Fc1cccc(Cl)c1-c1c(Cl)nc2ncnn2c1N1CC=CCO1` [Example 243]: 2.78; for `Fc1cccc(Cl)c1-c1c(Cl)nc2ncnn2c1N1CCCC=N1` [Example 244]: 2.58; for `Clc1ccc(-c2c(Cl)nc3ncnn3c2N2CCCCO2)c(Cl)c1` [Example 245]: 3.51.
The result for `CC1C=CCN(c2c(-c3c(F)cc(F)cc3F)c(Cl)nc3ncnn23)O1` (stereo not shown) [Example 246] reads 3.12; that for `Clc1ccccc1-c1c(Cl)nc2ncnn2c1N1CCCC1` [Example 247], 2.72.
The result for `CC1CCCCN1c1c(-c2ccccc2Cl)c(Cl)nc2ncnn12` (stereo not shown) [Example 248] reads 3.6.
As to `Fc1ccc(-c2c(Cl)nc3ncnn3c2N2CCCCN2)c(C(F)(F)F)c1` [Example 249], the log p turned out to be 2.98.
`Clc1nc2ncnn2c(N2CCCC2)c1-c1ccccc1` [Example 250] had a log p of 2.5.
For the molecule `Clc1nc2ncnn2c(N2CCCCC2)c1-c1ccccc1` [Example 251], the log p is on record as 3.05.
The same measure for `Clc1nc2ncnn2c(N2CCOCC2)c1-c1ccccc1` [Example 252]: 2.03.
The result for `CC1CCN(c2c(-c3ccccc3)c(Cl)nc3ncnn23)CC1` [Example 253] reads 3.47.
The result for `Clc1ccc(-c2c(Cl)nc3ncnn3c2N2CCOCC2)c(Cl)c1` [Example 254] reads 2.78; that for `CC1CCCN1c1c(-c2ccccc2Cl)c(Cl)nc2ncnn12` (stereo not shown) [Example 255], 3.1.
`CC1CCN(c2c(-c3ccccc3Cl)c(Cl)nc3ncnn23)CC1` [Example 256] displayed a log p of 3.71.
The result for `Clc1ccccc1-c1c(Cl)nc2ncnn2c1N1CCCCC1` [Example 257] reads 3.26; that for `CC1CCCN1c1c(-c2ccccc2)c(Cl)nc2ncnn12` (stereo not shown) [Example 258], 2.87; that for `CC1CCCCN1c1c(-c2ccccc2)c(Cl)nc2ncnn12` (stereo not shown) [Example 259], 3.35.
For the molecule `Fc1cccc(Cl)c1-c1c(Cl)nc2ncnn2c1N1CCCN1` [Example 260], the log p came to 2.29.
The same measure for `Fc1ccc(-c2c(Cl)nc3ncnn3c2N2CCCN2)c(Cl)c1` [Example 261]: 2.39; for `Fc1cc(F)c(-c2c(Cl)nc3ncnn3c2N2CCCN2)c(F)c1` [Example 262]: 2.32; for `Clc1ccccc1-c1c(Cl)nc2ncnn2c1N1CCCN1` [Example 263]: 2.2.
The result for `CC1CNN(c2c(-c3c(F)cccc3Cl)c(Cl)nc3ncnn23)CC1C` (stereo not shown) [Example 264] reads 3.32; that for `CC1CCN(c2c(-c3ccc(F)cc3Cl)c(Cl)nc3ncnn23)NC1` (stereo not shown) [Example 265], 3.22.
The same measure for `CC1CNN(c2c(-c3ccc(F)cc3Cl)c(Cl)nc3ncnn23)CC1C` (stereo not shown) [Example 266]: 3.43; for `CC1CCN(c2c(-c3c(F)cccc3Cl)c(Cl)nc3ncnn23)NC1` (stereo not shown) [Example 267]: 3.01; for `Cc1cc(C)n(-c2c(-c3c(F)cccc3Cl)c(Cl)nc3ncnn23)n1` [Example 268]: 2.87.
Molecule `Cc1cc(C)n(-c2c(-c3ccc(F)cc3Cl)c(Cl)nc3ncnn23)n1` [Example 269] gave a log p of 2.94.
The same measure for `CC1CNN(c2c(-c3c(F)cc(F)cc3F)c(Cl)nc3ncnn23)CC1C` (stereo not shown) [Example 270]: 3.35; for `CC1CCN(c2c(-c3ccccc3Cl)c(Cl)nc3ncnn23)NC1` (stereo not shown) [Example 271]: 3; for `CC1C=NN(c2c(-c3ccccc3Cl)c(Cl)nc3ncnn23)CC1` (stereo not shown) [Example 272]: 2.79.
The same measure for `CC1C=NN(c2c(-c3c(F)cc(F)cc3F)c(Cl)nc3ncnn23)CC1` (stereo not shown) [Example 273]: 2.85.
The same measure for `CC1CCN(c2c(-c3c(F)cc(F)cc3F)c(Cl)nc3ncnn23)NC1` (stereo not shown) [Example 274]: 3.05; for `CC1C=NN(c2c(-c3c(F)cccc3Cl)c(Cl)nc3ncnn23)CC1C` (stereo not shown) [Example 275]: 3.15.
Molecule `CC1C=NN(c2c(-c3c(F)cc(F)cc3F)c(Cl)nc3ncnn23)CC1C` (stereo not shown) [Example 276] came in with a log p of 3.14.
The result for `CC1C=NN(c2c(-c3ccccc3Cl)c(Cl)nc3ncnn23)CC1C` (stereo not shown) [Example 277] reads 3.1; that for `CC1CNN(c2c(-c3ccccc3Cl)c(Cl)nc3ncnn23)CC1C` (stereo not shown) [Example 278], 3.3; that for `CC1CCN(c2c(-c3ccccc3C(F)(F)F)c(Cl)nc3ncnn23)CC1` [Example 279], 3.8.
In turn, `CC1CCN(c2c(-c3c(F)cccc3Cl)c(C#N)nc3ncnn23)CC1` [Example 280] registered a log p of 3.37.
